From patent US20180215734A1, “PYRIMIDINE DERIVATIVES AS KINASE INHIBITORS AND THEIR THERAPEUTICAL APPLICATIONS” (NantBioScience, Inc., priority 2016, published 2018)
Read-outs that look alike come from different tables or passages of the source.

What was measured:
[1] = test system: KG1a; assay: Inhibition of proliferation (CellTiterblue, 72 hr), KG1a; assay type: cell-based, human; details: 72 hr
Protocol: (§1) A number of studies were performed to analyze the consequences of tyrosine kinase inhibition in cell lines. To do this, 1000 cells are seeded in 27 μl/well in 384-well microplates, which are then placed in a humidified CO2 incubator at 37° C. overnight. The next day, 3 μl/well of 10× concentrated drug is added and the plates are returned to the incubator for 72 hr. After 72 hr incubation, plates are removed and 6 μl/well CellTiterblue (Promega) viability reagent is added. Plates are returned to the incubator for 3 hrs, after which fluorescence measurements are read on the Victor X3 plate reader (Perkin Elmer). Data are analyzed using Excel (Microsoft), and GI50 values are determined using Prism (Graphpad).

[2] = test system: SNU16; assay: Inhibition of proliferation (CellTiterblue, 72 hr), SNU16; assay type: cell-based
Protocol: as §1

[3] = test system: Kato III; assay: Inhibition of proliferation (CellTiterblue, 72 hr), Kato III; assay type: cell-based
Protocol: as §1

[4] = molecular target: FGFR1(h) (Homo sapiens, UniProt P11362); assay: Kinase assay, FGFR1(h); assay type: biochemical; details: 1 μM
Chain of FGFR1(h) (P11362 22-822): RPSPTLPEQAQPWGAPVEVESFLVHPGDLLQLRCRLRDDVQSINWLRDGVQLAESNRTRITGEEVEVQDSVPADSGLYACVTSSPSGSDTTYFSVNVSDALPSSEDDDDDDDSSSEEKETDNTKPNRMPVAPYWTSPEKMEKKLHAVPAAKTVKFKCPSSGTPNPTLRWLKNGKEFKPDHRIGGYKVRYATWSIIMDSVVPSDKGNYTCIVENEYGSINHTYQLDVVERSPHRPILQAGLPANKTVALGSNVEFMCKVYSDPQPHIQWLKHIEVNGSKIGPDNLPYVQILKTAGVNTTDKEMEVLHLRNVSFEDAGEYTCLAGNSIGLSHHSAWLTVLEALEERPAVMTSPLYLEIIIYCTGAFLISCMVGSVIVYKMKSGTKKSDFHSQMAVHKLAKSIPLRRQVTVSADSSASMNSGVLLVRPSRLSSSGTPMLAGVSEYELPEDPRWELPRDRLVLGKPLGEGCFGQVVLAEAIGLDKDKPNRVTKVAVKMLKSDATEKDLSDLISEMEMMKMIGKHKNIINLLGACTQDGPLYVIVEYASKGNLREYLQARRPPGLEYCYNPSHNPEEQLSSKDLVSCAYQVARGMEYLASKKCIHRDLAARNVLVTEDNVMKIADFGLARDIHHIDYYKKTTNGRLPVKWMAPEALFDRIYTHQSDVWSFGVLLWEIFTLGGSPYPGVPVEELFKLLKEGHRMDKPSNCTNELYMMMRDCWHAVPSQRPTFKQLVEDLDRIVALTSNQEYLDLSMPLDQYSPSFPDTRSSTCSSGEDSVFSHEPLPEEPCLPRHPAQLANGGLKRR
Protocol: (§2) Kinase assay protocols well known to those of ordinary skill in the art were used. Specifically, the buffer composition was as follows: 20 mM MOPS, 1 mM EDTA, 0.01% Brij-35, 5% Glycerol, 0.1% β-mercaptoethanol, 1 mg/mL BSA. Test compounds were initially dissolved in DMSO at the desired concentration, then serially diluted to the kinase assay buffer. In a final reaction volume of 25 μL FGFR1(h) (5-10 mU) and KDR(h) (5-10 mU) are incubated with 8 mM MOPS pH 7.0, 0.2 mM EDTA, 200 μM LRRASLG (Kemptide), 10 mM magnesium acetate and [γ^33P-ATP]. The reaction was initiated by the addition of the MgATP mix. After incubation for 40 minutes at room temperature, the reaction was stopped by addition of 5 μL of a 3% phosphoric acid solution. Ten L of the reaction was then spotted onto a P30 filter mat and washed three times for 5 minutes in 50 mM phosphoric acid and once in methanol prior to drying and scintillation counting. Wells containing substrate but no kinase and wells containing a phosphopeptide control were used to set 0% and 100% phosphorylation value, respectively.
(§3) Of all of the steps in developing a drug, the hardest is finding promising compounds. (See, e.g., Malo et al., “Statistical practice in high-throughput screening data analysis,” Nature Biotechnology, 2006, 24, 167-75.) Kinase inhibitors often also have an anti-proliferative effect. […] The kinase inhibitory activity Compound 19 was tested using the kinase assay described in Example 3. […] These mutations in the tested kinases are thought to play an important role in transformation of some cancers.

[5] = molecular target: KDR(h) (Homo sapiens, UniProt P35968); assay: Kinase assay, KDR(h); assay type: biochemical
Chain of KDR(h) (P35968 20-1356): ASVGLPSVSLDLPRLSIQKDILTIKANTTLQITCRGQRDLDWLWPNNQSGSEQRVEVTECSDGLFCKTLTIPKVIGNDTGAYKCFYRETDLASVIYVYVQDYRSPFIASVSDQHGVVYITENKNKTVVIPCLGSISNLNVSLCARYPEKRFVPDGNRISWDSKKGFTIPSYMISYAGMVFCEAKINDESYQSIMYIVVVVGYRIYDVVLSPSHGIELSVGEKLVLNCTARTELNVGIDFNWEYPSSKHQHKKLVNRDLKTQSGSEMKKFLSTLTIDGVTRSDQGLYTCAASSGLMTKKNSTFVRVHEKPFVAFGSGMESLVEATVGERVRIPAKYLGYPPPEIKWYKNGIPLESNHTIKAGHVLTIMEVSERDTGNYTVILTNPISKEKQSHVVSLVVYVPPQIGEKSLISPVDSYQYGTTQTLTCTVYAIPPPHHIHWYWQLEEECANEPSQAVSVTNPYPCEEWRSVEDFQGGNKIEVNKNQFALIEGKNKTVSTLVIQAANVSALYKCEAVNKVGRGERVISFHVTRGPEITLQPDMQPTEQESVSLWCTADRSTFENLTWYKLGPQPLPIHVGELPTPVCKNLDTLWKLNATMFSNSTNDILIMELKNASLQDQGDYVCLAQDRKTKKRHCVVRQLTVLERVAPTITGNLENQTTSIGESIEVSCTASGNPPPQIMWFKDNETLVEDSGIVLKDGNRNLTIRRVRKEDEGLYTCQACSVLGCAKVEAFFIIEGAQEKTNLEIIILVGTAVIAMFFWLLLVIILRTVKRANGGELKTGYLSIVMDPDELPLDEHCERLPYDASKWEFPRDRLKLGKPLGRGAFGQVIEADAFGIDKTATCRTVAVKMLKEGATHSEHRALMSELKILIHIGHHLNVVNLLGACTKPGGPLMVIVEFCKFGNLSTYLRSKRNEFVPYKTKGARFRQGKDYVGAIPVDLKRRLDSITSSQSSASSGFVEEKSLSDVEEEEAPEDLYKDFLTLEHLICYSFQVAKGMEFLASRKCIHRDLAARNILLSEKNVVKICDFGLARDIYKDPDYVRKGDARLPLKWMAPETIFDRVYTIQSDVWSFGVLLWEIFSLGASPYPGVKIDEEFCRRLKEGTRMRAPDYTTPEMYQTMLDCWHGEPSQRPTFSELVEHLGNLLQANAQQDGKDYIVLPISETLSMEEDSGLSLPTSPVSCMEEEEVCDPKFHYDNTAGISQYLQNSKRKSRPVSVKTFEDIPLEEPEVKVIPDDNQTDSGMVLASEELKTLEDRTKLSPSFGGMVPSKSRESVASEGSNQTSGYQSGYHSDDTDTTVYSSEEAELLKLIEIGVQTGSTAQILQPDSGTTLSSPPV
Protocol: as §2, §3

[6] = test system: TG1a Human AML Xenograft; assay: Antitumor efficacy on TG1a human AML xenograft; assay type: in vivo, mouse; details: 20 mg/kg, Qdx10, IP
Protocol: In this Example the antitumor activity of compounds 14, 17, 19, 45, and 48 of the current invention are tested using an art-recognized xenograft model of AML. (“T/C” refers to the ratio of the tumor's size in treated animals versus the tumor size in control untreated animals. “BWC” refers to “body weight change”).

[7] = test system: RT112; assay: Inhibition of proliferation (CellTiterblue, 72 hr), RT112; assay type: cell-based
Protocol: as §1

[8] = Metabolic stability, human liver microsomes; assay type: in vitro ADME
[9] = Metabolic stability, mouse liver microsomes; assay type: in vitro ADME
[10] = Metabolic stability, rat liver microsomes; assay type: in vitro ADME

Structure (SMILES) | GI50 ([2]; Homo sapiens, SNU-16, 72 h) [nM] | inhibition at 1 µM [4] [%] | inhibition at 1 µM [5] [%] | BWC (%) [6] [%] | GI50 [2] [nM] | % Inhibition at 1 μM FGFR1(h) [4] [%] | % Inhibition at 1 μM KDR(h) ([5]; 1 μM) [%] | half-life [8] [min] | half-life [9] [min] | half-life [10] [min] | GI50 ([1]; Homo sapiens, KG-1a) [nM] | GI50 ([3]; Homo sapiens, KATO III, 72 h) [nM] | T/C (%) (day14) [6] | GI50 ([7]; Homo sapiens, RT-112, 72 h) [nM] | GI50 [7] [nM] | GI50 [1] [nM] | GI50 [3] [nM]
Cc1cc2c(F)c(Oc3ncnc(Nc4ccc(N5CCNCC5)cc4)c3C#N)cc(F)c2[nH]1 [Compound 14] | 23 | 99 | 93 | −4.0 |  |  |  |  |  |  | 1.6 | 137 | −60.6 | 76 |  |  | 
Cc1cc2c(F)c(Oc3ncnc(Nc4ccc(N5CCN[C@@H](C)C5)cc4)c3C#N)cc(F)c2[nH]1 [Compound 34] |  |  |  |  | 22 | 100 | 89 |  |  |  |  |  |  |  | 52 | 0.28 | 98
CCN1CCN(c2ccc(Nc3ncnc(Oc4cc(F)c5[nH]c(C)cc5c4F)c3C#N)cc2)CC1C (centres unmarked) [Compound 48] | 35 | 100 | 84 | −3.8 |  |  |  |  |  |  | 0.55 | 152 | −72.8 | 57 |  |  | 
Cc1cc2c(F)c(Oc3ncnc(Nc4ccc(N5[C@H](C)CNC[C@@H]5C)cc4)c3C#N)cc(F)c2[nH]1 [Compound 49] | 24 | 101 | 82 |  |  |  |  |  |  |  | 0.6 | 86 |  | 48 |  |  | 
Cc1cc2c(F)c(Oc3ncnc(Nc4ccc(N5CCN6CCCC6C5)cc4)c3C#N)cc(F)c2[nH]1 (centres unmarked) [Compound 50] | 52 | 101 | 88 |  |  |  |  |  |  |  | 2.91 | 174 |  | 49 |  |  | 
Cc1cc2c(F)c(Oc3ncnc(Nc4ccc(N5CCN6CCCCC6C5)cc4)c3C#N)cc(F)c2[nH]1 (centres unmarked) [Compound 51] | 66 | 101 | 80 |  |  |  |  |  |  |  | 1.62 | 208 |  | 73 |  |  | 
C=CC(=O)Nc1cccc(Nc2ncnc(Oc3cc(F)c4[nH]c(C)cc4c3F)c2C#N)c1 [Compound 53] | 28 | 100 | 93 |  |  |  |  |  |  |  | 3.59 | 152 |  | 94 |  |  | 
C=CC(=O)Nc1ccc(Nc2ncnc(Oc3cc(F)c4[nH]c(C)cc4c3F)c2C#N)cc1 [Compound 56] | 24 | 101 | 94 |  |  |  |  |  |  |  | 5.59 | 106 |  | 134 |  |  | 
Cc1nc(Nc2ncc(C(=O)Nc3c(C)cccc3Cl)s2)cc(N2CCN(CCO)CC2)n1 [DASATINIB, dasatinib, reference compound] |  |  |  |  |  |  |  | 7.5 | 9.2 | 11.9 |  |  |  |  |  |  | 

The next lines start with results.

GI50 ([2]; Homo sapiens, SNU-16, 72 h) [nM] | inhibition at 1 µM [4] [%] | inhibition at 1 µM [5] [%] | BWC (%) [6] [%] | GI50 [2] [nM] | % Inhibition at 1 μM FGFR1(h) [4] [%] | % Inhibition at 1 μM KDR(h) ([5]; 1 μM) [%] | half-life [8] [min] | half-life [9] [min] | half-life [10] [min] | Structure (SMILES) | GI50 ([1]; Homo sapiens, KG-1a) [nM] | GI50 ([3]; Homo sapiens, KATO III, 72 h) [nM] | T/C (%) (day14) [6] | GI50 ([7]; Homo sapiens, RT-112, 72 h) [nM] | GI50 [7] [nM] | GI50 [1] [nM] | GI50 [3] [nM]
20 | 100 | 96 | −5.7 |  |  |  |  |  |  | Cc1cc2c(F)c(Oc3ncnc(Nc4ccc(N5C[C@@H](C)N[C@@H](C)C5)cc4)c3C#N)ccc2[nH]1 [Compound 17] | 0.74 | 113 | −79.5 | 83 |  |  | 
12 | 101 | 89 |  |  |  |  |  |  |  | Cc1cc2c(F)c(Oc3ncnc(Nc4ccc(N5CCN[C@@H](C)C5)cc4)c3C#N)cc(F)c2[nH]1 [Compound 33] | 0.28 | 88 |  |  | 126 |  | 
15 | 101 | 73 | −11.7 |  |  |  |  |  |  | Cc1cc2c(F)c(Oc3ncnc(Nc4ccc(N5C[C@@H](C)N(C)[C@@H](C)C5)cc4)c3C#N)cc(F)c2[nH]1 [Compound 45] | 0.43 | 79 | 4.9 | 37 |  |  | 
22 | 101 | 90 |  |  |  |  |  |  |  | Cc1cc2c(F)c(Oc3ncnc(Nc4ccc(N5CCN(C)C(C)C5)cc4)c3C#N)cc(F)c2[nH]1 (centres unmarked) [Compound 46] | 1.37 | 111 |  | 48 |  |  | 
22 | 101 | 74 |  |  |  |  |  |  |  | CCN1[C@H](C)CN(c2ccc(Nc3ncnc(Oc4cc(F)c5[nH]c(C)cc5c4F)c3C#N)cc2)C[C@@H]1C [Compound 47] | 0.5 | 123 |  | 48 |  |  | 
